Measured values: patent publication US20230167105A1, “BCL-2 PROTEIN INHIBITORS” (Recurium IP Holdings, LLC, priority 2020, published 2023)

Legend:
MOLT-4 cells = assay: MOLT-4 Cell Proliferation Assay (CellTiter-Glo); type: cell-based; details: Homo sapiens, 72 h, read-out: MOLT-4 CTG IC50
Experimental: Cell proliferation was measured using the CellTiter-Glo® Luminescent Cell Viability Assay. The assay involved the addition of a single reagent (CellTiter-Glo® Reagent) directly to cells cultured in serum-supplemented medium. MOLT-4 cells (ATCC, CRL-1582) were cultured according to ATCC recommendations and were seeded at 50,000 cells per well.
Each compound evaluated was prepared as a DMSO stock solution (10 mM). Compounds were tested in duplicate on each plate, with a 10-point serial dilution curve (1:3 dilution). The highest compound concentration was 10 μM (final), with a 0.1% final DMSO concentration. Plates were then incubated at 37° C., 5% CO2 for 72 h, cell plates were equilibrated at rt for approximately 30 mins. An equi-volume amount of CellTiter-Glo® Reagent (100 μL) was added to each well. Plates were mixed for 2 mins on an orbital shaker to induce cell lysis and then incubated at rt for 10 mins to stabilize the luminescent signal. Luminescence was recorded using a Envision plate reader according to CellTiter-Glo protocol. IC50 of each compound was calculated using GraphPad Prism by nonlinear regression analysis.

Bcl-xL = biological target: T1, Bcl-xL (Homo sapiens, UniProt Q07817); assay: Protein Degradation Assay in MOLT-4 Cells (Western blot); type: cell-based; details: for BCL-xL degradation in MOLT-4 cells: 50 nM compound, 16 hours, FIGS. 7 and 8
T1 construct: endogenous in cells; host or cells: MOLT-4 (ATCC CRL-1582)
T1 sequence (Q07817 whole entry): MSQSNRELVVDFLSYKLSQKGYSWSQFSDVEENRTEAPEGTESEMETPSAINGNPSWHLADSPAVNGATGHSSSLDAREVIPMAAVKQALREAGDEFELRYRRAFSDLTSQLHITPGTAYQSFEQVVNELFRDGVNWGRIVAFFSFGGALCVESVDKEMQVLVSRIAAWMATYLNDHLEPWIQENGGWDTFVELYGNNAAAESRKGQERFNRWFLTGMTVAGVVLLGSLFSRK
Experimental: MOLT-4 (ATCC, CRL-1582) (FIGS. 7,8) were incubated with vehicle or 50 nM concentrations of the indicated compounds for 16 hours. For proteasome inhibition, MOLT-4 cells (250,000 cells/well) were pretreated with 1 μM of MG132 for 1 hour before the addition of 100 nM of the indicated compounds for 16 h. After treatment, the cells were harvested in RIPA lysis buffer supplemented with 1% Phosphatase Inhibitor and Protease Inhibitor Cocktail. An equal amount of protein (10 μg/lane) from each cell extract was resolved on a 4-12% Bis-Tris gel. Proteins were transferred using iBlot 2 Transfer Stacks. The membranes were blocked with 5% nonfat milk in TBS-T buffer (50 mM Tris-HCL, pH 7.6; 150 mM NaCl; and 0.05% Tween) and probed with primary antibodies (1:1000 dilution) overnight at 4° C. After three washes with TBS-T (10 min/wash), the membranes were incubated with an appropriate peroxidase-conjugated secondary antibody (Cell Signaling Technology, USA) for 1 hour at rt. After three washes with TBS-T, the proteins of interest were detected with ECL Western Blotting Detection Reagents and captured with an Azure imaging system. The band intensities were determined using ImageJ software and normalized to loading control β-actin or GAPDH. The primary antibodies Bcl-xL (#2762), Bcl-2 (#2872s), and GAPDH (#5174) were purchased from Cell Signaling Technology.

SMILES	IC50 (MOLT-4 cells) [nM]	BCL-xL degradation in MOLT-4 cells (Bcl-xL)	BCL-xL degradation in MOLT-4 cells, dose dependence (Bcl-xL; FIG. 9)	Bcl-xL degradation with proteasome inhibitor MG132 (Bcl-xL; MOLT-4 cells pretreated with 1 μM MG132 for 1 hour, then 100 nM compound for 16 h, FIG. 10)
Cc1ncsc1-c1ccc([C@H](C)NC(=O)[C@@H]2C[C@@H](O)CN2C(=O)[C@@H](NC(=O)CCCCC(=O)N(C)C2CCN(CC[C@H](CSc3ccccc3)Nc3ccc(S(=O)(=O)NC(=O)c4ccc(N5CCN(CC6=C(C78CC(C(F)F)(C7)C8)CC(C)(C)CC6)CC5)cc4)cc3S(=O)(=O)C(F)(F)F)CC2)C(C)(C)C)cc1 [Example 43, N1-(1-((R)-3-((4-(N-(4-(4-((2-(3-(difluoromethyl)bicyclo[1.1.1]pentan-1-yl)-4,4-dimethylcyclohex-1-en-1-yl)methyl)piperazin-1-yl)benzoyl)sulfamoyl)-2-((trifluoromethyl)sulfonyl)phenyl)amino)-4-(phenylthio)butyl)piperidin-4-yl)-N6-((S)-1-((2S,4R)-4-hydroxy-2-(((S)-1-(4-(4-methylthiazol-5-yl)phenyl)ethyl)carbamoyl)pyrrolidin-1-yl)-3,3-dimethyl-1-oxobutan-2-yl)-N1-methyladipamide]	50 to 150	induce BCL-xL degradation	–	–
Cc1ncsc1-c1ccc([C@H](C)NC(=O)[C@@H]2C[C@@H](O)CN2C(=O)[C@@H](NC(=O)CCCCCCCC(=O)N2CCN(CC[C@H](CSc3ccccc3)Nc3ccc(S(=O)(=O)NC(=O)c4ccc(N5CCN(CC6=C(C78CC(C)(C7)C8)CC(C)(C)CC6)CC5)cc4)cc3S(=O)(=O)C(F)(F)F)CC2)C(C)(C)C)cc1 [Example 24, (2S,4R)-1-((S)-2-(9-(4-((R)-3-((4-(N-(4-(4-((4,4-dimethyl-2-(3-methylbicyclo[1.1.1]pentan-1-yl)cyclohex-1-en-1-yl)methyl)piperazin-1-yl)benzoyl)sulfamoyl)-2-((trifluoromethyl)sulfonyl)phenyl)amino)-4-(phenylthio)butyl)piperazin-1-yl)-9-oxononanamido)-3,3-dimethylbutanoyl)-4-hydroxy-N—((S)-1-(4-(4-methylthiazol-5-yl)phenyl)ethyl)pyrrolidine-2-carboxamide]	50 to 150	induce BCL-xL degradation	–	–
Cc1ncsc1-c1ccc([C@H](C)NC(=O)[C@@H]2C[C@@H](O)CN2C(=O)[C@@H](NC(=O)CCCCCC(=O)N2CCN(CC[C@H](CSc3ccccc3)Nc3ccc(S(=O)(=O)NC(=O)c4ccc(N5CCN(CC6=C(C78CC(C(F)F)(C7)C8)CC(C)(C)CC6)CC5)cc4)cc3S(=O)(=O)C(F)(F)F)CC2)C(C)(C)C)cc1 [Example 6, (2S,4R)-1-((S)-2-(7-(4-((R)-3-((4-(N-(4-(4-((2-(3-(difluoromethyl)bicyclo[1.1.1]pentan-1-yl)-4,4-dimethylcyclohex-1-en-1-yl)methyl)piperazin-1-yl)benzoyl)sulfamoyl)-2-((trifluoromethyl)sulfonyl)phenyl)amino)-4-(phenylthio)butyl)piperazin-1-yl)-7-oxoheptanamido)-3,3-dimethylbutanoyl)-4-hydroxy-N—((S)-1-(4-(4-methylthiazol-5-yl)phenyl)ethyl)pyrrolidine-2-carboxamide]	50 to 150	induce BCL-xL degradation	can induce BCL-xL degradation in MOLT-4 cells in a dose dependent manner	can be inhibited by proteasome inhibitor MG132
Cc1ncsc1-c1ccc([C@H](C)NC(=O)[C@@H]2C[C@@H](O)CN2C(=O)[C@@H](NC(=O)CCCCCCN2CCN(CC[C@H](CSc3ccccc3)Nc3ccc(S(=O)(=O)NC(=O)c4ccc(N5CCN(CC6=C(C78CC(C)(C7)C8)CC(C)(C)CC6)CC5)cc4)cc3S(=O)(=O)C(F)(F)F)CC2)C(C)(C)C)cc1 [Example 25, (2S,4R)-1-((S)-2-(7-(4-((R)-3-((4-(N-(4-(4-((4,4-dimethyl-2-(3-methylbicyclo[1.1.1]pentan-1-yl)cyclohex-1-en-1-yl)methyl)piperazin-1-yl)benzoyl)sulfamoyl)-2-((trifluoromethyl)sulfonyl)phenyl)amino)-4-(phenylthio)butyl)piperazin-1-yl)heptanamido)-3,3-dimethylbutanoyl)-4-hydroxy-N—((S)-1-(4-(4-methylthiazol-5-yl)phenyl)ethyl)pyrrolidine-2-carboxamide]	50 to 150	induce BCL-xL degradation	–	–
CC1(C)CCC(CN2CCN(c3ccc(C(=O)NS(=O)(=O)c4ccc(N[C@H](CCN5CCN(CCCCCNc6cccc7c6C(=O)N(C6CCC(=O)NC6=O)C7=O)CC5)CSc5ccccc5)c(S(=O)(=O)C(F)(F)F)c4)cc3)CC2)=C(C23CC(C)(C2)C3)C1 (stereo partly drawn) [Example 7, 4-(4-((4,4-dimethyl-2-(3-methylbicyclo[1.1.1]pentan-1-yl)cyclohex-1-en-1-yl)methyl)piperazin-1-yl)-N-((4-(((2R)-4-(4-(5-((2-(2,6-dioxopiperidin-3-yl)-1,3-dioxoisoindolin-4-yl)amino)pentyl)piperazin-1-yl)-1-(phenylthio)butan-2-yl)amino)-3-((trifluoromethyl)sulfonyl)phenyl)sulfonyl)benzamide]	50 to 150	–	–	–
CC1(C)CCC(CN2CCN(c3ccc(C(=O)NS(=O)(=O)c4ccc(N[C@H](CCN5CCN(CCCCNc6ccc7c(c6)C(=O)N(C6CCC(=O)NC6=O)C7=O)CC5)CSc5ccccc5)c(S(=O)(=O)C(F)(F)F)c4)cc3)CC2)=C(C23CC(C(F)F)(C2)C3)C1 (stereo partly drawn) [Example 13, 4-[4-[[2-[3-(difluoromethyl)-1-bicyclo[1.1.1]pentanyl]-4,4-dimethyl-cyclohexen-1-yl]methyl]piperazin-1-yl]-N-[4-[[(1R)-3-[4-[4-[[2-(2,6-dioxo-3-piperidyl)-1,3-dioxo-isoindolin-5-yl]amino]butyl]piperazin-1-yl]-1-(phenylsulfanylmethyl)propyl]amino]-3-(trifluoromethylsulfonyl)phenyl]sulfonyl-benzamide]	≤ 50	–	–	–
Cc1ncsc1-c1ccc([C@H](CC(=O)NCCCCCCN2CCN(CC[C@H](CSc3ccccc3)Nc3ccc(S(=O)(=O)NC(=O)c4ccc(N5CCN(CC6=C(C78CC(C(F)F)(C7)C8)CC(C)(C)CC6)CC5)cc4)cc3S(=O)(=O)C(F)(F)F)CC2)NC(=O)[C@@H]2C[C@@H](O)CN2C(=O)[C@@H](NC(=O)C2(F)CC2)C(C)(C)C)cc1 [Example 48]	≥ 150	–	–	–
CC1(C)CCC(CN2CCN(c3ccc(C(=O)NS(=O)(=O)c4ccc(N[C@H](CCN5CCN(CCCCCNc6ccc7c(c6)C(=O)N(C6CCC(=O)NC6=O)C7=O)CC5)CSc5ccccc5)c(S(=O)(=O)C(F)(F)F)c4)cc3)CC2)=C(C23CC(C(F)F)(C2)C3)C1 (stereo partly drawn) [Example 4, 4-(4-((2-(3-(difluoromethyl)bicyclo[1.1.1]pentan-1-yl)-4,4-dimethylcyclohex-1-en-1-yl)methyl)piperazin-1-yl)-N-((4-(((2R)-4-(4-(5-((2-(2,6-dioxopiperidin-3-yl)-1,3-dioxoisoindolin-5-yl)amino)pentyl)piperazin-1-yl)-1-(phenylthio)butan-2-yl)amino)-3-((trifluoromethyl)sulfonyl)phenyl)sulfonyl)benzamide]	50 to 150	–	–	–
CC1(C)CCC(CN2CCN(c3ccc(C(=O)NS(=O)(=O)c4ccc(N[C@H](CCN5CCN(CCCCc6ccc7c(c6)CN(C6CCC(=O)NC6=O)C7=O)CC5)CSc5ccccc5)c(S(=O)(=O)C(F)(F)F)c4)cc3)CC2)=C(C23CC(C(F)F)(C2)C3)C1 (stereo partly drawn) [Example 18, 4-(4-((2-(3-(difluoromethyl)bicyclo [1.1.1]pentan-1-yl)-4,4-dimethylcyclohex-1-en-1-yl)methyl)piperazin-1-yl)-N-((4-(((2R)-4-(4-(4-(2-(2,6-dioxopiperidin-3-yl)-1-oxoisoindolin-5-yl)butyl)piperazin-1-yl)-1-(phenylthio)butan-2-yl)amino)-3-((trifluoromethyl)sulfonyl)phenyl)sulfonyl)benzamide]	≤ 50	–	–	–
